Common to all, as to assay type: in vivo
In one test the test system is Hordeum murinum. Put plainly: Post-emergence herbicidal activity against HORMU. As to conditions: dosage 320 g/ha; for pest or weed control at 320 g/ha: Hordeum murinum, 504 h. In outline:
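Greenhouse pot plants sprayed post-emergence at one-leaf stage (2-3 weeks after sowing) with WP or EC formulations, 0.5% additive, 600 l/ha water. Visual rating about 3 weeks later versus untreated controls: 100% = plants dead, 0% = like control.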

A further test has as its system Abutilon theophrasti. Put plainly: Post-emergence herbicidal activity against ABUTH. As to conditions: dosage 320 g/ha, rated about 3 weeks after treatment; for pest or weed control at 320 g/ha: Abutilon theophrasti, 504 h. An outline of the steps: (§1)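 Greenhouse-grown plants treated at one-leaf stage, 2 to 3 weeks after sowing, with WP or EC formulations sprayed as aqueous suspension/emulsion plus 0.5% additive at 600 l/ha. Activity rated visually about 3 weeks later versus untreated controls (100% = plants dead, 0% = like control).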

Test [1] deals with Stellaria media. Put plainly: Pre-emergence herbicidal activity against STEME. As to conditions: dosage 80 g/ha; for pest or weed control at 80 g/ha: Stellaria media, 504 h. The text has this: (§2) 1. Pre-Emergence Herbicidal Action and Crop Plant Compatibility Seeds of monocotyledonous and dicotyledonous weed plants and crop plants are placed in plastic or wood fiber pots and covered with soil. The compounds of the invention, formulated in the form of wettable powders (WP) or as emulsion concentrates (EC), are then applied onto the surface of the covering soil as aqueous suspension or emulsion with addition of 0.5% additive at a water application rate of 600 l/ha (converted). After the treatment, the pots are placed in a greenhouse and kept under good growth conditions for the trial plants. After about 3 weeks, the effect of the preparations is scored visually in comparison with untreated controls as percentages. For example, 100% activity=the plants have died, 0% activity=like control plants. STEME: Stellaria media VERPE: Veronica persica

A further test deals with Pharbitis purpurea. Put plainly: Post-emergence herbicidal activity against PHBPU. The note with it: dosage 320 g/ha, rated about 3 weeks after treatment; for pest or weed control at 320 g/ha: Ipomoea purpurea, 504 h. An outline of the steps: (§3)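 Greenhouse-grown plants sprayed post-emergence at the one-leaf stage, 2 to 3 weeks after sowing, with WP or EC formulations plus 0.5% additive at 600 l/ha water. Activity rated visually after about 3 weeks versus untreated controls (100% = plants dead, 0% = like control).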

In a further test the test system is Alopecurus myosuroides. Put plainly: Post-emergence herbicidal activity against ALOMY. The note with it: dosage 320 g/ha, rated about 3 weeks after treatment; for pest or weed control at 320 g/ha: Alopecurus myosuroides, 504 h. An outline of the steps: as §1
In another test the test system is Polygonum convolvulus. Put plainly: Post-emergence herbicidal activity against POLCO. As to conditions: dosage 320 g/ha, rated about 3 weeks after treatment; for pest or weed control at 320 g/ha: Fallopia convolvulus, 504 h. An outline of the steps: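 Greenhouse weeds in sandy loam were sprayed at the one-leaf stage, 2–3 weeks after sowing, with WP or EC formulations plus 0.5% additive at 600 l/ha water. About 3 weeks later, damage was rated visually against untreated controls, where 100% means plants dead and 0% means like control.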

Another test concerns Lolium rigidum. Put plainly: Post-emergence herbicidal activity against LOLRI. The note with it: dosage 320 g/ha, rated about 3 weeks after treatment; for pest or weed control at 320 g/ha: Lolium rigidum, 504 h. An outline of the steps:
as §3

Test [2] relates to Stellaria media. Put plainly: Post-emergence herbicidal activity against STEME. The note with it: dosage 320 g/ha, rated about 3 weeks after treatment; for pest or weed control at 320 g/ha: Stellaria media, 504 h. An outline of the steps:
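Greenhouse plants treated at one-leaf stage, 2–3 weeks after sowing, by spraying WP or EC formulations with 0.5% additive at 600 l/ha water. Visual rating about 3 weeks later versus untreated controls (100% = plants dead, 0% = like controls).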

A further test deals with Avena fatua. Put plainly: Pre-emergence herbicidal activity against AVEFA. As to conditions: dosage 80 g/ha; for pest or weed control at 80 g/ha: Avena fatua, 504 h, read-out: Pre-emergence herbicidal activity against AVEVA in % (AVEFA).
Text: as §2, with “AMARE: Amaranthus retroflexus AVEFA: Avena fatua” for “STEME: Stellaria media VERPE: Veronica persica”

The values below come from patent US11597724B2, “Herbicidally active 3-phenylisoxazoline-5-carboxamides of tetrahydro and dihydrofuran carboxylic acids and esters” (Bayer Aktiengesellschaft, priority 2017, dated 2023).

Turning to `C=C[C@]1(C(=O)N[C@H]2CO[C@@H](C(=O)OC(C)C)C2)CC(c2cc(F)cc(F)c2)=NO1` (mixture of isomers) [I-36, isopropyl cis-4-[[(5S)-3-(3,5-difluorophenyl)-5-vinyl-4H-isoxazole-5-carbonyl]amino]tetrahydrofuran-2-carboxylate], the pest or weed control at 320 g/ha amounted to 90% with Hordeum murinum; 90% with Abutilon theophrasti; 80% in the test with Pharbitis purpurea; 90% in the test with Alopecurus myosuroides; 80% in the test with Polygonum convolvulus; 90% in the test on Lolium rigidum. Besides, the pest or weed control at 320 g/ha in the test with Stellaria media [2] was 90%. Besides, the pest or weed control at 80 g/ha in the test on Stellaria media [1] and in the test on Avena fatua was 100% each time.
For the compound `C=C[C@]1(C(=O)N[C@H]2CO[C@@H](C(=O)OC(C)(C)C)C2)CC(c2cc(F)cc(F)c2)=NO1` (mixture of isomers) [I-38, tert-butyl cis-4-[[(5S)-3-(3,5-difluorophenyl)-5-vinyl-4H-isoxazole-5-carbonyl]amino]tetrahydrofuran-2-carboxylate], the pest or weed control at 320 g/ha with Hordeum murinum was found to be 90%; in the test on Abutilon theophrasti it was 80%; in the test on Pharbitis purpurea it was 90%; in the test with Alopecurus myosuroides, 90%; with Lolium rigidum it was 90%; in the test on Stellaria media [2] it was 90%. Moreover, the pest or weed control at 80 g/ha was found to be 100% with Stellaria media [1] and 90% in the test on Avena fatua.
Consider `CC1(C(=O)NC2COC(C(=O)OCc3ccccc3)C2)CC(c2cc(F)cc(F)c2)=NO1` (mixture of isomers) [I-45], for which the “Post-emergence herbicidal activity against HORMU in %” value with Hordeum murinum is listed as 100%. Also, the “Post-emergence herbicidal activity against ABUTH in %” value in the test on Abutilon theophrasti was 80%. Further, the “Pre-emergence herbicidal activity against STEME in %” value in the test on Stellaria media [1] is on record as 100%. Moreover, in the test on Pharbitis purpurea, the “Post-emergence herbicidal activity against PHBPU in %” value was found to be 90%. In addition, the “Post-emergence herbicidal activity against ALOMY in %” value in the test on Alopecurus myosuroides amounted to 100%. Also, the “Post-emergence herbicidal activity against POLCO in %” value in the test with Polygonum convolvulus is listed as 80%. The “Post-emergence herbicidal activity against LOLRI in %” value in the test with Lolium rigidum is reported as 100%. For the same compound, in the test with Stellaria media [2], the “Post-emergence herbicidal activity against STEME in %” value amounted to 90%. The “Pre-emergence herbicidal activity against AVEVA in % (AVEFA)” value with Avena fatua was 100%.
Turning to `C=C[C@]1(C(=O)N[C@H]2CO[C@@H](C(=O)OC)C2)CC(c2cc(F)cc(F)c2)=NO1` (mixture of isomers) [I-10, methyl cis-4-[[(5S)-3-(3,5-difluorophenyl)-5-vinyl-4H-isoxazole-5-carbonyl]amino]tetrahydrofuran-2-carboxylate], the pest or weed control at 320 g/ha in the test with Hordeum murinum is 100%; with Abutilon theophrasti it was 90%; with Pharbitis purpurea, 90%; in the test with Alopecurus myosuroides, 100%; in the test with Polygonum convolvulus, 80%; in the test on Lolium rigidum it was 100%. The compound further showed a pest or weed control at 320 g/ha in the test on Stellaria media [2] of 90%. Besides, the pest or weed control at 80 g/ha with Stellaria media [1] and in the test with Avena fatua was 100% throughout.
As to `CC1(C(=O)NC2COC(C(=O)O)C2)CC(c2cc(F)cc(F)c2)=NO1` (mixture of isomers) [I-41], the “Post-emergence herbicidal activity against HORMU in %” value with Hordeum murinum was 100%. Also, the “Post-emergence herbicidal activity against ABUTH in %” value in the test on Abutilon theophrasti is 80%. Further, the “Pre-emergence herbicidal activity against STEME in %” value in the test on Stellaria media [1] was 100%. Further, the “Post-emergence herbicidal activity against PHBPU in %” value with Pharbitis purpurea is on record as 90%. Moreover, in the test on Alopecurus myosuroides, the “Post-emergence herbicidal activity against ALOMY in %” value is 100%. For the same compound, the “Post-emergence herbicidal activity against POLCO in %” value with Polygonum convolvulus is given as 90%. Also, the “Post-emergence herbicidal activity against LOLRI in %” value in the test with Lolium rigidum was determined as 100%. Moreover, the “Post-emergence herbicidal activity against STEME in %” value in the test on Stellaria media [2] is listed as 90%. Besides, the “Pre-emergence herbicidal activity against AVEVA in % (AVEFA)” value in the test on Avena fatua worked out at 100%.
As for `CC(C)(C)OC(=O)C1CC(NC(=O)C2(C)CC(c3cc(F)cc(F)c3)=NO2)CO1` (mixture of isomers) [I-42], in the test with Hordeum murinum, the “Post-emergence herbicidal activity against HORMU in %” value was 100%. The “Post-emergence herbicidal activity against ABUTH in %” value in the test with Abutilon theophrasti is 80%. In the test on Stellaria media [1], the “Pre-emergence herbicidal activity against STEME in %” value is reported as 100%. The “Post-emergence herbicidal activity against PHBPU in %” value in the test with Pharbitis purpurea amounted to 90%. Besides, in the test with Alopecurus myosuroides, the “Post-emergence herbicidal activity against ALOMY in %” value is reported as 100%. For the same compound, the “Post-emergence herbicidal activity against POLCO in %” value in the test with Polygonum convolvulus was found to be 80%. Besides, the “Post-emergence herbicidal activity against LOLRI in %” value in the test on Lolium rigidum is recorded as 100%. In the test with Stellaria media [2], the “Post-emergence herbicidal activity against STEME in %” value is on record as 90%. The “Pre-emergence herbicidal activity against AVEVA in % (AVEFA)” value in the test with Avena fatua worked out at 90%.
Turning to `C=C[C@]1(C(=O)N[C@H]2CO[C@@H](C(=O)OCC)C2)CC(c2cc(F)cc(F)c2)=NO1` (mixture of isomers) [I-35, ethyl cis-4-[[(5S)-3-(3,5-difluorophenyl)-5-vinyl-4H-isoxazole-5-carbonyl]amino]tetrahydrofuran-2-carboxylate], the pest or weed control at 320 g/ha in the test with Hordeum murinum was found to be 100%; with Abutilon theophrasti it was 80%; with Pharbitis purpurea, 90%; with Alopecurus myosuroides, 100%; in the test with Lolium rigidum it was 100%; with Stellaria media [2] it was 90%. For the same compound, the pest or weed control at 80 g/ha with Stellaria media [1] and in the test on Avena fatua was 100% in each case.
Take `CC(C)OC(=O)C1CC(NC(=O)C2(C)CC(c3cc(F)cc(F)c3)=NO2)CO1` (stereo not drawn) [I-44]: the “Post-emergence herbicidal activity against HORMU in %” value with Hordeum murinum was found to be 100%. Further, in the test with Abutilon theophrasti, the “Post-emergence herbicidal activity against ABUTH in %” value amounted to 80%. Further, in the test with Stellaria media [1], the “Pre-emergence herbicidal activity against STEME in %” value was 90%. In the test on Pharbitis purpurea, the “Post-emergence herbicidal activity against PHBPU in %” value is reported as 90%. The “Post-emergence herbicidal activity against ALOMY in %” value in the test with Alopecurus myosuroides turned out to be 100%. For the same compound, the “Post-emergence herbicidal activity against POLCO in %” value with Polygonum convolvulus is listed as 80%. In addition, the “Post-emergence herbicidal activity against LOLRI in %” value in the test on Lolium rigidum was 100%. In the test with Stellaria media [2], the “Post-emergence herbicidal activity against STEME in %” value is 90%. The “Pre-emergence herbicidal activity against AVEVA in % (AVEFA)” value with Avena fatua is on record as 90%.
As for `COC(=O)C1=C[C@@H](NC(=O)C2(C)CC(c3cccc(F)c3)=NO2)CO1` (stereo partly drawn) [I-46, methyl (3R)-3-[[3-(3-fluorophenyl)-5-methyl-4H-isoxazole-5-carbonyl]amino]-2,3-dihydrofuran-5-carboxylate], the pest or weed control at 320 g/ha in the test on Hordeum murinum is 100%; in the test with Abutilon theophrasti, 80%; in the test on Pharbitis purpurea, 90%; in the test on Alopecurus myosuroides it was 100%; in the test with Polygonum convolvulus it was 80%; with Lolium rigidum, 100%. The pest or weed control at 320 g/ha in the test with Stellaria media [2] was 90%. The figures for the pest or weed control at 80 g/ha with Stellaria media [1] and with Avena fatua were 100% and 80%, respectively.
Take `CC1(C(=O)N[C@H]2CO[C@@H](C(=O)OCc3ccccc3)C2)CC(c2cccc(F)c2)=NO1` (mixture of isomers) [I-34, benzyl cis-4-[[(5RS)-3-(3-fluorophenyl)-5-methyl-4H-isoxazole-5-carbonyl]amino]tetrahydrofuran-2-carboxylate]: the pest or weed control at 320 g/ha in the test on Hordeum murinum is 100%; with Abutilon theophrasti, 80%; in the test with Pharbitis purpurea it was 90%; with Alopecurus myosuroides it was 100%; with Lolium rigidum it was 90%; with Stellaria media [2] it was 90%. Besides, the pest or weed control at 80 g/ha with Stellaria media [1] was found to be 90%; in the test with Avena fatua, 80%.
